# Results taken from patent publication US9115092B2, “Substituted quinazoline and pyrido-pyrimidine derivatives” (Asana Biosciences, LLC, priority 2010, dated 2015).
# Legend:
# mTOR kinase = target: T1, mTOR kinase (Homo sapiens, UniProt P42345); experiment: mTOR kinase TR-FRET assay; format: biochemical; conditions: read-out: mTO R
# T1 construct: purchased Millipore, USA
# Outline: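 Compounds preincubated 60 min with mTOR (5 ng) in HEPES pH 7.5, EGTA, MnCl2; ULight-p70 S6K Thr389 peptide (50 nM) and ATP (20 μM) then added, 60 min at room temperature. EDTA-stopped, Eu-anti-phospho antibody detection by TR-FRET (665/615 nm); IC50 from variable-slope sigmoidal fit.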
# [1] = target: T2, PI3Kα (wild-type), P110/P85α (Homo sapiens, UniProt P42336); experiment: PI3 Kinase TR-FRET assay, PI3Kα (wild-type); format: biochemical
# T2 construct: made in house; host or cells: SF9 insect cells
# Outline: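 Sf9-expressed His-purified P110/P85α (5 ng) preincubated 60 min RT with compound and PIP2 in buffer with 40 mM MgCl2, 5 mM DTT; reaction started with ATP (PIP2 and ATP both 10 μM), 30 min RT. PIP3 detected by TR-FRET displacement, 665/615 nm ratio; IC50 from dose-response curves.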
# PI3 kinase isoform δ = PI3 kinase isoform δ (Homo sapiens, UniProt O00329); experiment: PI3 Kinase TR-FRET assay, isoform δ; format: biochemical; conditions: read-out: inhibition of PI3 kinase isoform δ, IC50
# Protocol: (§1) The ability of compounds of the invention to inhibit PI3K activity was determined in a homogeneous TR-FRET assay using a PI3K assay kit (Millipore, USA; cat #33-016) according to manufacturer's instructions. PI3-Kinases (isoforms α, β, γ and δ) catalyze the phosphorylation of phosphatidylinositol, PIP2 to PIP3 in the presence of ATP and Mg^2+. The PIP3 product is detected by displacement of biotin-PIP3 from an energy transfer complex consisting of Europium labeled anti-GST monoclonal antibody, a GST-tagged PH domain, biotinylated PIP3 and Streptavidin-APC. Excitation of Europium in the complex results in an energy transfer to the APC and a fluorescence emission at 665 nm. The PIP3 product displaces biotin-PIP3 from the complex resulting in a loss of energy transfer and thus a decrease in signal.
# (§2) To test for the ability of compounds to inhibit the activity of PI3Kα (wild-type), exemplary compounds of formula (I) were dissolved in DMSO and directly distributed into 384-well plates at a volume of 0.5 μL. 14.5 μL of P110/P85α/PIP2 mixture in buffer (obtained from the Millipore kit) containing MgCl2 (40 mM) and DTT (5 mM) was added to compound wells and incubated for 60 min at room temperature. P110/P85α was expressed in SF9 insect cells and purified nickel column extraction. Five ng of wild-type P110/P85α was used in the assay. The kinase reaction was started by the addition of ATP. The assay concentrations of both PIP2 and ATP were 10 μM. The reaction mixture was incubated for 30 min at room temperature and was terminated by the addition of stop mix and detection mix. Fluorescence was measured at 615 and 665 nm upon excitation at 340 nm in a Victor™ V5 fluorometer (Perkin Elmer, USA). The fluorescence emission ratio at 665 to 615 nm, proportional to the kinase activity, was plotted against the compound concentration to generate dose-response curves and IC50 values were determined using GraphPad Prism® 5 software.
# (§3) The activity of PI3 kinase isoforms β, γ and δ were assayed in a similar manner to the assay protocol described above for PI3Kα, by substituting the appropriate p110/p85 isoform for the p110α/p85α. Compounds of formula (I) caused inhibition of PI3 kinase isoforms β, γ and δ as determined by these assays. For example, the compounds of examples 3, 51, 54, 111, 113, 115, and 253 each caused inhibition of PI3 kinase isoform β with IC50 values <50 nM. The compounds of examples 104, 133, 146 and 152 each caused inhibition of PI3 kinase isoform β with IC50 values <500 nM. The compounds of examples 3, 51, 54, 104, 111, 113, 115, 133, 253, and 152 each caused inhibition of PI3 kinase isoform γ with IC50 values <500 nM. […] The compounds of examples 2, 3, 51, 54, 111, 113, and 253 each caused inhibition of PI3 kinase isoform […] with IC50 values >1 μM.
# PC3 cells = experiment: XTT assay for cell viability, PC3 cells; format: cell-based, human; conditions: Homo sapiens, PC-3, cell viability
# Outline: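 PC3 cells seeded at 1000 cells/well, grown 24 h, then exposed to serial dilutions of compound for 96 h. Viability read by XTT dye at 37° C, absorbance 465 nm. EC50 from sigmoidal dose-response fit.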
# [2] = test system: pS6RP(S235/236), PC3 cells; experiment: In-cell Western assay, pS6RP(S235/236) in PC3 cells; format: cell-based, human; conditions: Homo sapiens, PC-3, In-cell Western
# Outline: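 Overnight-seeded PC3 cells were treated 2 h with serially diluted compound, then fixed and immunostained with phospho-specific primary antibodies and Eu-labelled secondary. Time-resolved Eu signal read at 615 nm (ex 340 nm), normalised by Hoechst 33258 staining (ex 355/em 460 nm); IC50 from sigmoidal dose-response fit.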
# [3] = test system: pAKT(5473) (phosphorylated at serine 473), PC3 cells; experiment: In-cell Western assay, pAKT(5473) in PC3 cells; format: cell-based; conditions: Homo sapiens, PC-3, In-cell Western, read-out: pAkt-S473
# Protocol: (§4) Cells from human prostate cancer cell line PC3 (American Type Culture Collection (ATCC), Manassas, Va. 20108 USA) were seeded at an optimal density of 22,000 cell/well in 96-well plates containing Ham's F12K medium (90 μL) and incubated overnight. The compound dilutions were carried out in 100% DMSO followed by a dilution in the medium. Test compounds were added in serial dilutions to the wells and incubated for 2 h. The cells were washed and fixed with 4% paraformaldehyde. After incubation at room temperature for 1 h in the dark, blocking was done for 2 h at room temperature. Primary antibodies for phosphorylated (p) AKT(5473) (phosphorylated at serine 473), pAKT(T308) (phosphorylated at threonine 308) and for pS6RP(S235/236) (phosphorylated at serine 235/236) (commercially available from Cell Signaling Technology®, whose protocol was followed for the in-cell western assay, were diluted to the required concentration and added to the corresponding wells followed by overnight incubation at 4° C. Eu-labeled rabbit (PE) (Perkin-Elmer USA catalog #AD0106) secondary antibody was added and incubated for 2 h at room temperature. Delfia® enhancement solution (cat #1244-105, Perkin Elmer USA) was subsequently added to the plate before taking the reading at 615 nm with excitation wavelength of 340 nm, after which 0.5 μg/mL of Hoechst® 33258 dye (Catalog #86140-5, Sigma) was added to the plate and fluorescence emission was read at 460 nm with 355 nm excitation, to evaluate the correction factor. IC50 values were calculated using a sigmoidal dose-response curve fit in GraphPad Prism® v5 software.
# PI3 kinase isoform β = PI3 kinase isoform β (Homo sapiens, UniProt P42338); experiment: PI3 Kinase TR-FRET assay, isoform β; format: biochemical; conditions: read-out: inhibition of PI3 kinase isoform β, IC50
# Protocol: as §1, §2, §3
# [4] = test system: pAKT(T308) (phosphorylated at threonine 308), PC3 cells; experiment: In-cell Western assay, pAKT(T308) in PC3 cells; format: cell-based; conditions: Homo sapiens, PC-3, In-cell Western
# Protocol: as §4
# pS6RP in PC3 tumor = experiment: In vivo PK/PD study, PC3 tumor bearing mice, pS6RP; conditions: Mus musculus, 50 mg/kg po, at 3 and 8 hours
# Protocol: PC3 cells were cultured at 37° C. in a 5% CO2 incubator using Hams F12 K medium. Ten million (10^7) cells were injected subcutaneously to the right flank region of athymic male mice (Harlan, age: 6-7 weeks, weight: about 20 g). Tumor bearing mice were randomized when the tumor volume reached about 250 mm^3 and three mice were used per each time point. Test compounds of formula (I) were formulated in 40% HPCD in 1×PBS, pH 7.4 and dosed orally at 50 mg/kg single dose (dose volume−10 mL/kg). Plasma and tumor samples were collected at 0 (vehicle control animals), 1, 4 and 24 hours post dosing. Blood was drawn (retro orbital) to a tube containing 0.2% EDTA for plasma collection. The tumor was excised from the mouse and immediately frozen in liquid nitrogen for PD analysis. Tumor and plasma drug concentrations were measured for PK analysis using LC-MS.
# Snap frozen tumor samples were pulverized in a mortar (Belart) containing liquid nitrogen and tumor powder was stored at −80° C. until analysis. Pre coated ELISA kits (Cell Signaling Technology; pAKT(T308), CST#7135; pAKT(5473), CST#7134 and pS6RP, CST#7205) were used for PD analysis. Tumor powder was transferred to Eppendorf® tubes and lysis buffer (1 mL) was added to the powder. Protease and phosphatase inhibitors (SIGMA) and phenylmethanesulfonylfluoride (PMSF) were added to tumor powder and mixed by vortexing followed by sonication (15 sec). Samples were kept on an ice bath for 30 min. Supernatant was separated after centrifugation at 10,000 rpm for 20 min at 4° C. Supernatant was re-centrifuged and fresh supernatant was aliquoted to different tubes. Total protein was estimated using a BCA kit (Thermo Scientific) and 50 μg total protein was loaded to each well. ELISA analysis was carried out as per manufacturer's instructions. The detection for pAKT was based on chemiluminescence and pS6RP was based on absorbance. Qualitative assessments of the suppression of pAKT(T308), pAKT(5473), and pS6RP were also carried out by standard Western blot analyses.
# For example, the compound of Example 1, at 50 mg/kg po, caused about 50% inhibition of pAkt(5473) at 1 and 4 hours and >50% inhibition of pS6RP at 1, 4 and 24 hours. Also, the compound of Example 2, at 50 mg/kg po, caused about 25-30% inhibition of pAkt(5473) at 4 and 24 hours and >50% inhibition of pS6RP at 1, 4 and 24 hours. The compound of example 51, at 30 mg/kg po, caused >50% inhibition of pS6RP at 2, 4 and 24 hours. Also, the compounds of examples 133, 146, 147, and 228, at 50 mg/kg po, each caused >50% inhibition of pS6RP at 3 and 8 hours.
# PI3 kinase isoform δ, sequence (O00329 whole entry, the tested form may be a part, canonical isoform): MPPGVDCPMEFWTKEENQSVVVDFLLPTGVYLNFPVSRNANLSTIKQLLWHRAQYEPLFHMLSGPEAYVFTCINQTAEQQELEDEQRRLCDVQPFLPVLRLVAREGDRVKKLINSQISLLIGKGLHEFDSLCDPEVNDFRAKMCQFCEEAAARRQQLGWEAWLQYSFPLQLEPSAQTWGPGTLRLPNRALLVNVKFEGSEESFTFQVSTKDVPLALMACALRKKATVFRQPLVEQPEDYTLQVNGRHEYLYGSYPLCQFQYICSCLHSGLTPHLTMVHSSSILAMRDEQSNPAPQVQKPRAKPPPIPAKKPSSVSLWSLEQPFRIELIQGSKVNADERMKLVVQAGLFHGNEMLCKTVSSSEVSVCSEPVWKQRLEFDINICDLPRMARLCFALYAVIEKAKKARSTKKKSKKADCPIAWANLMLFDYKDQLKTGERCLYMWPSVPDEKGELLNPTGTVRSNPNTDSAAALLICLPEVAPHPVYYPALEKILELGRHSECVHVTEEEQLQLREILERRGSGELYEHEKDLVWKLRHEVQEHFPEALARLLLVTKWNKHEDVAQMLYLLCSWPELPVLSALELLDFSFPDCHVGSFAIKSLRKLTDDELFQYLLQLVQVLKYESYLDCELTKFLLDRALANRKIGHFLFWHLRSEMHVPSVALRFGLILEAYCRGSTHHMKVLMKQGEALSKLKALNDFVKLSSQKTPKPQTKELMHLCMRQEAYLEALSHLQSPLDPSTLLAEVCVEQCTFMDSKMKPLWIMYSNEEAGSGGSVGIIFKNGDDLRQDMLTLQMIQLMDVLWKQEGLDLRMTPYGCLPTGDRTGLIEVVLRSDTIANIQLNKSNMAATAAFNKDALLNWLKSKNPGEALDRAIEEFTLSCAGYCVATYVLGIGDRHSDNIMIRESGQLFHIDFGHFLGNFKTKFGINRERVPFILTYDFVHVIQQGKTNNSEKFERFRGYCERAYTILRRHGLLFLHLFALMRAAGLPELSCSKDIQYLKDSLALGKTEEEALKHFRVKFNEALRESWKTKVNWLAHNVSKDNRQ
# PI3 kinase isoform δ, sequence (P27986 whole entry partner, the tested form may be a part, canonical isoform): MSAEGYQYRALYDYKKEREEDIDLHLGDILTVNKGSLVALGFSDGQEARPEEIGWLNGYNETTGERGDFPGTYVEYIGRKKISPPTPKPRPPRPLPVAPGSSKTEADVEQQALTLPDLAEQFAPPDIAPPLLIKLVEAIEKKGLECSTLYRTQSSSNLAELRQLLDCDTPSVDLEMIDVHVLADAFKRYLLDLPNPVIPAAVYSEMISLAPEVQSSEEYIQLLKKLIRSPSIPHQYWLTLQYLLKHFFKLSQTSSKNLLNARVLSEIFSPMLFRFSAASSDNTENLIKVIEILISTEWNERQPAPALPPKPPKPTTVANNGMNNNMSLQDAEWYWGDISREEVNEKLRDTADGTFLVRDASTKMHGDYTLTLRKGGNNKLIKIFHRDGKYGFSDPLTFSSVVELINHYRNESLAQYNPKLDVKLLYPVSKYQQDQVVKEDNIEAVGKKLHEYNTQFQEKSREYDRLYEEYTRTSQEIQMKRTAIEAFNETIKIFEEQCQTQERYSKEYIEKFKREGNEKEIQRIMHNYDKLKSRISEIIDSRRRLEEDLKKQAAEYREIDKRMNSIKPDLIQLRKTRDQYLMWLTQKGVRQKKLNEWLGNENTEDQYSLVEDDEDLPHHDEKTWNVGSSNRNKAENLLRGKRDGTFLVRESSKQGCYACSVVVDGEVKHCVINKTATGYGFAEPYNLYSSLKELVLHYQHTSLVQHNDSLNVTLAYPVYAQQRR
# T2 sequence (P42336 whole entry): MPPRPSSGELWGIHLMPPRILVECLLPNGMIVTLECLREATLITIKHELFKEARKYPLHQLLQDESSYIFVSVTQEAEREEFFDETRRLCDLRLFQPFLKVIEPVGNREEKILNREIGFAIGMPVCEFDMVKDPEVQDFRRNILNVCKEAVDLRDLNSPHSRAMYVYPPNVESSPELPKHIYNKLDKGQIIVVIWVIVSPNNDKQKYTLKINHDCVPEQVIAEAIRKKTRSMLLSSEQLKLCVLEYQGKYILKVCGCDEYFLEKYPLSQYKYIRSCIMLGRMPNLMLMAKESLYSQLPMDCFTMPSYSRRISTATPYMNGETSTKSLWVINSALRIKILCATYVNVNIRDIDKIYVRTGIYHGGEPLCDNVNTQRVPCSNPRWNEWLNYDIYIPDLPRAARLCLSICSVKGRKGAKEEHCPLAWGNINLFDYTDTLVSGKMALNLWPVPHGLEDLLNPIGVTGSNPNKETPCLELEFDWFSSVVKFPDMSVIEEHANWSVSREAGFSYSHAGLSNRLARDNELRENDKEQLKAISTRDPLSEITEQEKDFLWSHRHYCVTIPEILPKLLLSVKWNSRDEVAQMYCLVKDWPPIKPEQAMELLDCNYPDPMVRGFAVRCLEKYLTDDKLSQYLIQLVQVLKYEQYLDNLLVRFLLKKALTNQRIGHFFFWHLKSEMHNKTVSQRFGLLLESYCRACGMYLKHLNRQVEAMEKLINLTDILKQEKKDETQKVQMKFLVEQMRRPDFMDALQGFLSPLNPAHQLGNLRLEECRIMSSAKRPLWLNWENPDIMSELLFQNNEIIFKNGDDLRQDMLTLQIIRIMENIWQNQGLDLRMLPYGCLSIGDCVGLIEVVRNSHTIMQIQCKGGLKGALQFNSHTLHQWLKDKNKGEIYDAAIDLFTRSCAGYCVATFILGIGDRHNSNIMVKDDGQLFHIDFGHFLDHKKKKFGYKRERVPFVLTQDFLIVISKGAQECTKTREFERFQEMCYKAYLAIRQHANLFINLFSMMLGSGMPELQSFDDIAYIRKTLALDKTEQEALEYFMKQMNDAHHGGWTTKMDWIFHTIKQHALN
# T2 sequence (P27986 whole entry partner): as the sequence (P27986 whole entry partner, the tested form may be a part, canonical isoform) above
# PI3 kinase isoform β, sequence (P42338 whole entry, canonical isoform): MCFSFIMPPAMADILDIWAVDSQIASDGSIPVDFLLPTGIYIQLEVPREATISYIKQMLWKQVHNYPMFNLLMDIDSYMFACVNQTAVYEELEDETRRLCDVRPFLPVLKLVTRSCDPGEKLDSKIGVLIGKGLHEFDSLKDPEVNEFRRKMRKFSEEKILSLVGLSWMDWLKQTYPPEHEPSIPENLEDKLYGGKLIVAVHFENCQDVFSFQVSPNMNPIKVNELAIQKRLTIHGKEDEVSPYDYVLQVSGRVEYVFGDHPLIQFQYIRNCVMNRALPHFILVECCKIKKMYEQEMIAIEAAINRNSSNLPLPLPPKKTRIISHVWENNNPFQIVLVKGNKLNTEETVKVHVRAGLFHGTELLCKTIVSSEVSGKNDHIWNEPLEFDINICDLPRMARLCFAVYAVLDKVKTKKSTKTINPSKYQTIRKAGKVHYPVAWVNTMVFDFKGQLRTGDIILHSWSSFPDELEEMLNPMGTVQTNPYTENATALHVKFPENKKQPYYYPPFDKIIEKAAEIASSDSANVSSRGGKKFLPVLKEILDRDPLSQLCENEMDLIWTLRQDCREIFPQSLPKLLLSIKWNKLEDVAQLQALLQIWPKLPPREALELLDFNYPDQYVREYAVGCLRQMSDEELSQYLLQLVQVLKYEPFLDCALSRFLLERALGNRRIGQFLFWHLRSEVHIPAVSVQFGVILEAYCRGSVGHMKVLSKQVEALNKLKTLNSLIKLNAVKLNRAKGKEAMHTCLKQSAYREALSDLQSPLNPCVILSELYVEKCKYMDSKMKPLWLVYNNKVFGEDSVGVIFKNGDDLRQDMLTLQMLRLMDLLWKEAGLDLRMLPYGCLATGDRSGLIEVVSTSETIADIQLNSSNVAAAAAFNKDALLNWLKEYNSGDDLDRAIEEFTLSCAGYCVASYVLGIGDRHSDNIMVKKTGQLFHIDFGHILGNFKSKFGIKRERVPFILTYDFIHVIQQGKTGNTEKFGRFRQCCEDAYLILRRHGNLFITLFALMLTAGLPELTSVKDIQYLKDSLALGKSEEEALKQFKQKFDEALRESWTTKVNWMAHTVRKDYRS
# PI3 kinase isoform β, sequence (P27986 whole entry partner, canonical isoform): as the sequence (P27986 whole entry partner, the tested form may be a part, canonical isoform) above
Compound,IC50 (mTOR kinase),IC50 [1],IC50 (PI3 kinase isoform δ),IC50 (PC3 cells),IC50 [2],IC50 [3],IC50 (PI3 kinase isoform β),IC50 [4],inhibition at 50 mg/kg (pS6RP in PC3 tumor)
"CN(C)C(=O)c1ccc(NC(=O)Nc2ccc(-c3nc(N4CCOCC4)c4ncc(-c5cccnc5F)cc4n3)cn2)cc1 [Example 111, 4-(3-(5-(7-(2-fluoropyridin-3-yl)-4-morpholino-pyrido[3,2-d]pyrimidin-2-yl)pyridin-2-yl)ureido)-N,N-dimethyl-benzamide]",< 0.05 µM,< 0.05 µM,> 1 µM,0.201 to 10 µM,0.201 to 10 µM,0.201 to 10 µM,–,–,–
"CN(C)C(=O)c1ccc(NC(=O)Nc2ccc(-c3nc(N4CCOCC4)c4cc(F)c(-c5cnn(C)c5)cc4n3)cn2)cc1 [Example 113, 4-(3-(5-(6-fluoro-7-(1-methyl-1H-pyrazol-4-yl)-4-morpholino-quinazolin-2-yl)pyridin-2-yl)ureido)-N,N-dimethyl-benzamide]",0.05 to 0.2 µM,< 0.05 µM,> 1 µM,0.201 to 10 µM,< 0.1 µM,< 0.1 µM,–,–,–
"COc1ncc(-c2ccc3c(N4CCOCC4)nc(-c4ccc(NC(=O)Nc5ccc(C(=O)N(C)C)cc5F)cc4)nc3c2)cn1 [Example 147, 3-fluoro-4-(3-(4-(7-(2-methoxypyrimidin-5-yl)-4-morpholino-quinazolin-2-yl)phenyl)ureido)-N,N-dimethyl-benzamide]",< 0.05 µM,0.05 to 0.2 µM,–,–,–,< 0.1 µM,–,0.201 to 10 µM,> 50%
"CN(C)C(=O)c1ccc(NC(=O)Nc2ccc(-c3nc(N4CCOCC4)c4ccc(-c5ccc(CO)o5)cc4n3)cc2)c(F)c1 [Example 228, 3-fluoro-4-(3-(4-(7-(5-(hydroxymethyl)furan-2-yl)-4-morpholino-quinazolin-2-yl)phenyl)ureido)-N,N-dimethyl-benzamide]",< 0.05 µM,< 0.05 µM,–,–,–,0.501 to 5 µM,–,–,> 50%

# More lines, main results first:
IC50 (mTOR kinase),IC50 [1],IC50 (PI3 kinase isoform δ),IC50 (PC3 cells),IC50 [2],IC50 [3],IC50 (PI3 kinase isoform β),IC50 [4],Compound,inhibition at 50 mg/kg (pS6RP in PC3 tumor)
0.05 to 0.2 µM,< 0.05 µM,> 1 µM,0.1 to 0.5 µM,–,–,–,–,CN(C)C(=O)c1ccc(NC(=O)Nc2ccc(-c3nc(N4CCOCC4)c4ccc(-c5cccc(S(C)(=O)=O)c5)cc4n3)cn2)cc1 [Example 3],–
0.05 to 0.2 µM,< 0.05 µM,> 1 µM,0.1 to 0.5 µM,–,–,–,–,"CN(C)C(=O)c1ccc(NC(=O)Nc2ccc(-c3nc(N4CCOCC4)c4ccc(-c5cccnc5F)cc4n3)cn2)cc1 [Example 54, 4-(3-{5-[7-(2-fluoro-pyridin-3-yl)-4-morpholin-4-yl-quinazolin-2-yl]-pyridin-2-yl}-ureido)-N,N-dimethyl-benzamide]",–
< 0.05 µM,< 0.05 µM,–,0.201 to 10 µM,0.201 to 10 µM,< 0.1 µM,< 0.5 µM,–,"CN(C)C(=O)c1ccc(NC(=O)Nc2ccc(-c3nc(N4CCOCC4)c4ncc(-c5cccc(S(C)(=O)=O)c5)cc4n3)cc2F)cc1 [Example 104, 4-(3-(2-fluoro-4-(7-(3-(methylsulfonyl)phenyl)-4-morpholino-pyrido[3,2-d]pyrimidin-2-yl)phenyl)ureido)-N,N-dimethyl-benzamide]",–
0.201 to 10 µM,< 0.05 µM,> 1 µM,–,–,< 0.1 µM,–,–,"CN(C)C(=O)c1ccc(NC(=O)Nc2ccc(-c3nc(N4CCOCC4)c4ccc(-c5cccc(S(C)(=O)=O)c5)cc4n3)cn2)cc1F [Example 253, 2-fluoro-N,N-dimethyl-4-(3-(5-(7-(3-(methylsulfonyl)phenyl)-4-morpholino-quinazolin-2-yl)pyridin-2-yl)ureido)-benzamide]",–
